Source: PMC8252432 (Angewandte Chemie (International Ed. in English), 2021)

Test system: trypsin
Test: Trypsin digestion of Angiotensin III, LC-MS
Assay type: in vitro ADME
Settings: 10 mM phosphate buffer pH 7.4, no nanoparticle (Figure 1a)

time in which the peptide could be cleaved in buffer: 120 min
SMILES: CC[C@H](C)[C@H](NC(=O)[C@H](Cc1ccc(O)cc1)NC(=O)[C@@H](NC(=O)[C@@H](N)CCCN=C(N)N)C(C)C)C(=O)N[C@@H](Cc1c[nH]cn1)C(=O)N1CCC[C@H]1C(=O)N[C@@H](Cc1ccccc1)C(=O)O [A‐III, Angiotensin III]
